According to US4743606A, “3-[2-(3',5'-di-t-butyl-4'-hydroxyphenyl)ethenyl]pyridine having anti-inflammatory and anti-arthritic properties” (Boehringer Ingelheim Pharmaceuticals, Inc., priority 1986, dated 1988):
Where two headings read alike, the source gives them in different places.

Key:
[1] = system: Polyarthritis (adjuvant-induced, heat-killed Mycobacterium butyricum) in male CD rats; test: Developing Adjuvant-Induced Polyarthritis in Rats; format: in vivo, rat; settings: for % Inhibition: oral, once daily 14 days, non-injected hind paw volume
Experimental: This test is used to determine the ability of compounds to affect the immunological processes involved in the induction and development of arthritis.
(§1) Polyarthritis is induced in male CD rats (150-170 g) by injection of heat-killed Mycobacterium butyricum. Each animal is given 0.1 ml of a 0.5% (5 mg/ml) adjuvant suspension in light mineral oil injected subcutaneously into the plantar surface of the right hind foot. At least 6 rats are used in each test group. Animals are dosed orally with test compound immediately after adjuvant injection, and once daily for a total of 14 days. Foot volumes are measured 24 hours after the final dose by mercury displacement to the lateral malleolus. Mean displacement volumes and their standard errors are calculated for the non-injected hind paws. Untreated normal and arthritic control groups are used as comparison for test compound effect. Results are expressed as percent of control effect.
The experiments reported here are performed using the same procedures as described in Example 3, except that 4-[2-(3',5'-di-t-butyl-4'-hydroxyphenol)ethenyl]pyridine (prior art) is under assay rather than the compound of the invention.

[2] = system: reverse passive arthus reaction (paw swelling) in rats; test: Reverse Passive Arthus Reaction; format: in vivo, rat
Experimental: The reverse passive arthus reaction is initiated by the interaction of antigen and antibody resulting in the formation of a precipitating immune complex, followed by fixation of complement, accumulation of leukocytes, edema and hemorrhage. The immunopathology of rheumatoid arthritis involves many of the parameters found in this reaction.
Test groups (5 rats per group) are dosed orally with compounds one hour prior to the sub-plantar injection into the right hind paw of rabbit anti-ovalbumin antibody (50 μg/0.1 ml). Immediately afterwards, ovalbumin (Sigma, #5503) (5 mg/0.2 ml) is injected i.v. via the tail vein. The right hind paw volume is measured at hourly intervals, from one to four hours after the injection of the immune reactants.
The change in paw volume for each animal is calculated by subtracting the zero hour paw volume (before injection) from the paw volume at the time of measurement. The mean of these values is calculated for each group. Results are expressed as percent inhibition of paw swelling compared to untreated controls.

[3] = system: established adjuvant-induced polyarthritis in rats; test: Established Adjuvant-Induced Polyarthritis in Rats; format: in vivo, rat
Experimental: as §1
This assay is used to determine the ability of compounds to affect an established chronic inflammatory condition.
Rats in which polyarthritis has become established are selected 14 days after receiving the adjuvant suspension. They are treated daily with oral doses of test compound for 14 days (days 14-27). […] 24 hours after the final dose.

[4] = in vivo; settings: rat
Experimental: A 50% ulcerogenic response in the animals tested (UD50) at 200 mg/kg for 4 days is observable when the rats are examined 24 hours after the last dose.

[5] = system: carrageenan induced paw edema in male CD rats; test: Carrageenan Induced Paw Edema in Rats; format: in vivo, rat
Experimental: This test is used to determine the ability of a compound to affect non-immune acute inflammation. Edema is produced in the right hind paw of male CD rats (150±10 g) by the subplantar injection of carrageenan (0.1 ml of a 1 percent suspension in saline). Ten rats are used in each test group. Test compound or its vehicle is administered orally 1 hour prior to carrageenan injection. Paw volume is determined by calculating the amount of mercury displaced after immersing the paw to the level of the lateral malleolus. Foot volumes are measured just prior to test compound administration and again 3 hours after carrageenan injection and the difference designated as edema volume.

[6] = biological target: T1, 5-Lipoxygenase (Oryctolagus cuniculus, UniProt G1SNX0); test: Hydroxyacid Profile Assay of 5-Lipoxygenase Derived Arachidonic Acid Metabolites (5-HETE biosynthesis by glycogen-elicited PMNs); format: cell-based, rabbit
T1 construct: glycogen elicited rabbit PMNs; endogenous in cells; host or cells: glycogen-elicited rabbit polymorphonuclear leucocytes (PMNs)
T1 sequence (G1SNX0 1-674): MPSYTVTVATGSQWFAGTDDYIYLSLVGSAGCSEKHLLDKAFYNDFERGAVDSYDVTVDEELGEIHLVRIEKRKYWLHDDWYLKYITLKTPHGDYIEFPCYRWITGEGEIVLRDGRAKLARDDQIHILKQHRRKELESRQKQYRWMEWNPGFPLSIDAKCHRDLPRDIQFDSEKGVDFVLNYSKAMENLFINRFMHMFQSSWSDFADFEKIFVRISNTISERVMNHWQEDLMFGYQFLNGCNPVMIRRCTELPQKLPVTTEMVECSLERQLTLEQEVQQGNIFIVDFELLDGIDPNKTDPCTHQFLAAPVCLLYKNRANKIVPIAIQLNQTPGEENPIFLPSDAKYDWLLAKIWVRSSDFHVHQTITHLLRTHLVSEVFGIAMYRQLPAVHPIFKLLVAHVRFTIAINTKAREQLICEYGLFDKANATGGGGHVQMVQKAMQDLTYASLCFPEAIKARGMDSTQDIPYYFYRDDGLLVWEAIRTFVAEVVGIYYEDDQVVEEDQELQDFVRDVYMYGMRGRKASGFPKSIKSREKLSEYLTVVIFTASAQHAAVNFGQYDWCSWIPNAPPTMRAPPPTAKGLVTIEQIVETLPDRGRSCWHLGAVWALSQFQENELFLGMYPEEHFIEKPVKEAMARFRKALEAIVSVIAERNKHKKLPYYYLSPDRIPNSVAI
Experimental: Buffer A (8.70 g NaCl; 0.27 g KCl; 0.42 g Na2 HPO4; 0.76 g KH2 PO4; and 1.00 g dextrose per liter H2 O; pH 7.0) (0.325 ml) is introduced into each of a battery of screwtop culture tubes. Then, a compound (0.100 ml) to be assayed is dispensed into individual tubes. Dose-response curves are determined by triplicate measurements at each concentration. Control tubes receive Buffer A (0.100 ml) in lieu of compound. Next, glycogen elicited rabbit PMNs (2×10^7 cells/tube; 4×10^7 cells/ml (0.500 ml) are added to each tube. The tubes are vortexed and preincubated in a shaking 37° C. water bath for 15 minutes.
Thereafter, the tubes are removed from the water bath and Calcium Ionophore Solution (400 μg/ml A-23187; Sigma Chemical Co., St. Louis, MO) (0.025 ml), ^14 C-arachidonic acid (0.25 μCi in 0.025 ethanol; New England Nuclear Products, Boston, MA) (0.025 ml) and Ca^+2 solution (CaCl2.2H2 O); 105.8 mg/10 ml H2 O) (0.025 ml) are added in that order. The tubes are vortexed and returned to the water bath for 30 minutes. The reaction is then terminated by the addition of HCl (0.8N, 0.025 ml).
Extraction and concentration of ^14 C-labeled 5-HETE is performed as follows. First, a solution (5.01 ml) containing 2 parts ethyl acetate, 3 parts CH2 Cl2 and unlabeled arachidonic acid (0.01 ml) is added to each tube. The tubes are capped and briefly vortexed. The contents of each tube are poured into a polypropylene column fitted with a porous polyethylene disc and Whatman phase separation filter paper. The organic phase is collected by gravity filtration into a conical centrifuge tube, while the aqueous phase is retained in the column by the phase separation paper. Each culture tube is rinsed once with the EtOAc:CH2 Cl2 solution (no arachidonic acid) (0.1 ml) and the wash added to the column. The organic phase is concentrated (to 0.5 ml) using a Savant Speed Vac concentrator (Savant Instruments, Inc., Hicksville, NY).
After concentration of the organic phase, the tubes are vortexed and stored covered on ice. An aliquot (0.01 ml) is then removed for liquid scintillation counting in a Beckman LS7500 Liquid Scintillation Counter (Beckman Instruments Corp., Fullerton, CA). […] This volume is applied to a silica gel covered glass plate in a 10 mm streak. The remaining fluid in the tube is measured via syringe and noted.
The TLC plate is placed in a chromatography chamber containing the following solvent system: CHCl3 :MeOH:HOAc:H2 O(v/v; 90:9:1:0.65). The plate is then air dried and counter on a Berthold Linear TLC Analyzer (Berthold Instruments, Inc., Pittsburgh, PA) for 30 minutes per lane. The integrated area of the 5-HETE band for each compound is converted to percent of control and analyzed.

[7] = system: MMC-16 cells, LTC4 release (lipoxygenase pathway); test: Mouse Mastocytoma Cell Leukotriene Release; format: cell-based
Experimental: The MMC-16 cell line represents a convenient in vitro model for studying the lipoxygenase pathway and offers an effective screening method by which inhibitory test compounds can be identified.
Cultured MMC-16 cells are suspended in Ca^++ free phosphate buffer at a concentration of 10^7 cells/ml. The cell suspension is distributed into plastic culture tubes, 1 ml/tube. Duplicate tubes are used for each drug concentration tested, with drug solution (0.2 ml) added to each tube. An ionophore control consists of Ca^++ free buffer (0.2 ml) added to two tubes, and a blank (0.4 ml Ca^++ free buffer) added to two tubes. CaCl2 solution (0.1 ml) is added to the drug and ionophore control tubes, which are vortexed and incubated at 37° C. for 40 minutes. The tubes are then centrifuged at 1,000×g for 10 minutes, and the supernatants collected and added to 4 volumes of absolute ethanol. LTC4 content is then assayed for by either radioimmunoassay or high performance liquid chromatography.

[8] = system: Human neutrophils (respiratory burst, H2O2 production); test: Effect of Test Compound on H2O2 Production by Neutrophils (PMNs); format: cell-based; settings: for IC50: Homo sapiens, Neutrophil
Source text: During this process molecular oxygen is converted to superoxide anion, which in turn yields hydrogen peroxide, hydroxyl radical and products of myeloperoxidase action. These activated oxygen species contribute to the cells microbiocidal activity. However they have also been reported to contribute to the inflammatory process and tissue destruction in rheumatic diseases [J. Fantone and P. Ward, Amer. […] This assay measures the ability of a test compound to inhibit the respiratory burst process by its effect on hydrogen peroxide production.
Either 10 μL stock solution of test compound or 10 μL medium is added to the appropriate tubes, followed by 1 ml cells in each tube. The tubes are incubated at 37° C. for 15 minutes. To the PMA stimulated group 10 μL/tube 10^-5 M PMA is added. To the opsonized zymosan stimulated group 20 μL/tube 10 mg/ml opsonized zymosan is added. The tubes are mixed gently to disperse cells and stimulus (if any) and 100 μL is pipetted into each of four microtiter plates. The plates are covered and incubated 1 hour at 37° C. in CO2.
After the incubation period 10 μL 1N NaOH is added to each test well to develop the color. A blanking well is made up of 110 μl distilled water.
Mean OD values are calculated for each set of quadruplicate wells. Any artifactual change in absorbance due to a direct drug effect on the detection system is subtracted out from the ΔOD of the stimulated cells+drug tubes. The % inhibition of H2 O2 release by PMA or opsonized zymosan is calculated relative to the "O drug" control for each stimulus as follows: […]

Compound: CC(C)(C)c1cc(C=Cc2ccncc2)cc(C(C)(C)C)c1O [4-[2-(3',5'-di-t-butyl-4'-hydroxyphenyl)ethenyl]pyridine, reference compound]
- % Inhibition ([1]; 50 mg/kg): 0%

Compound: CC(C)(C)c1cc(C=Cc2cccnc2)cc(C(C)(C)C)c1O [Compound 1, 3-[2-(3,5-di-t-butyl-4-hydroxyphenyl)ethenyl]-pyridine]
- % Inhibition ([2]; 1 mg/kg oral, hour 1): 17%
- % Inhibition ([2]; 1 mg/kg oral, hour 2): 19%
- % Inhibition ([2]; 1 mg/kg oral, hour 3): 26%
- % Inhibition ([2]; 1 mg/kg oral, hour 4): 10%
- % Inhibition ([2]; 30 mg/kg oral, hour 1): 29%
- % Inhibition ([2]; 30 mg/kg oral, hour 2): 50%
- % Inhibition ([2]; 30 mg/kg oral, hour 3): 55%
- % Inhibition ([2]; 30 mg/kg oral, hour 4): 44%
- % Inhibition ([2]; 100 mg/kg oral, hour 1): 7%
- % Inhibition ([2]; 100 mg/kg oral, hour 2): 48%
- % Inhibition ([2]; 100 mg/kg oral, hour 3): 55%
- % Inhibition ([2]; 100 mg/kg oral, hour 4): 22%
- activity in reverse passive arthus screen ([2]; in words): active
- % Inhibition ([1]; 5 mg/kg): 56%
- % Inhibition ([1]; 50 mg/kg): 82%
- activity in developing adjuvant arthritis screen in the rat ([1]; in words): active
- % Inhibition ([3]; 5.0 mg/kg, oral, daily days 14-27): 60%
- % Inhibition ([3]; 10.0 mg/kg, oral, daily days 14-27): 74%
- % Inhibition ([3]; 20.0 mg/kg, oral, daily days 14-27): 79%
- % Inhibition ([3]; 40.0 mg/kg, oral, daily days 14-27): 82%
- activity in established adjuvant arthritis screen in the rat ([3]; in words): active
- ED50 ([3]; rat established adjuvant arthritis, oral, daily days 14-27): 4 mg/kg
- TD50 at 24 h [4]: 200 mg/kg
- % Inhibition ([5]; 100 mg/kg, oral, 1 hour prior to carrageenan, edema at 3 hours): 56%
- activity in carrageenan paw edema screen ([5]; in words): active
- IC50 [6]: 3 µM
- inhibition at 50 µM ([6]; 5 × 10^-5 M): 66%
- inhibition at 5 µM ([6]; 5 × 10^-6 M): 68%
- inhibition at 0.5 µM ([6]; 5 × 10^-7 M): 18%
- inhibition at 10 µM ([6]; 10^-5 M): 67%
- inhibition at 1 µM ([6]; 10^-6 M): 29%
- inhibition of 5-lipoxygenase ([6]; in words): inhibit
- inhibition at 30 µM ([7]; 3 × 10^-5 M): 100%
- inhibition at 3 µM ([7]; 3 × 10^-6 M): 18%
- inhibition at 10 µM ([7]; 10^-5 M): 67%
- inhibition at 1 µM ([7]; 10^-6 M): 0%
- IC50 ([7]; LTC4 release, MMC-16 cells): 7 µM
- IC50 ([8]; read-out: Opsonized Zymosan Stimulated Oxidative Burst IC50): 14 µM
- IC50 ([8]; read-out: PMA Stimulated Oxidative Burst IC50): 25 µM
- release of pro-inflammatory oxygen metabolites from stimulated neutrophils ([8]; in words): inhibited
